In publication PMC8949142 (2022):

How the values were obtained:
[1] = tested on: G48nop (DNA, aptamer) GCGACCGAAGTGAGGCTCGATCCAAGGTGGACGGGAGGTTGGATTGTGCGTG; experiment: biolayer interferometry; details: 100 mM Na+, 5 mM K+, 2 mM Mg2+, 1 mM Ca2+, 20 mM Tris-HCl pH 7.6
[2] = tested on: G48nop (FAM) (DNA, aptamer) GCGACCGAAGTGAGGCTCGATCCAAGGTGGACGGGAGGTTGGATTGTGCGTG; experiment: microscale thermophoresis; details: 100 mM Na+, 5 mM K+, 2 mM Mg2+, 1 mM Ca2+, 20 mM Tris-HCl pH 7.6, 0.02% Tween-20, 25 °C
[3] = tested on: G13 (DNA, aptamer) GGGAGGACGAAGCGGAACCCATGGGGTGTGAGGCTCGATCAGGAGGTAAAAGCAGCGCGTCGTCAGTGTGCAGAAGACACGCCCGACA; experiment: biolayer interferometry; details: 100 mM Na+, 5 mM K+, 2 mM Mg2+, 1 mM Ca2+; 20 mM Tris-HCl pH 7.6; 1:1 fit
[4] = tested on: G48 (DNA, aptamer) GGGAGGACGAAGCGGAACGCGACCGAAGTGAGGCTCGATCCAAGGTGGACGGGAGGTTGGATTGTGCGTGCAGAAGACACGCCCGACA; experiment: biolayer interferometry; details: 100 mM Na+, 5 mM K+, 2 mM Mg2+, 1 mM Ca2+; 20 mM Tris-HCl pH 7.6; 1:1 fit
[5] = tested on: G48nors (DNA, aptamer) TGAGGCTCGATCCAAGGTGGACGGGAGGTTGGATTGTGCGTG; experiment: biolayer interferometry; details: 100 mM Na+, 5 mM K+, 2 mM Mg2+, 1 mM Ca2+; 20 mM Tris-HCl pH 7.6; 1:1 fit
[6] = tested on: control (random) sequence (FAM) (DNA, single strand) GAGCCTTAGCAGCACTTCACACGATCCACCCTTAAGGCCAACCTTAACACGACCTCAAACACTGCGTAATGACTGTAGTGATGCCTTA; experiment: microscale thermophoresis; details: 100 mM Na+, 5 mM K+, 2 mM Mg2+, 1 mM Ca2+; 20 mM Tris-HCl pH 7.6, 0.02% Tween-20, 25 °C; GYM-A up to 10,000 nM; not fittable
[7] = tested on: G79 (DNA, aptamer) GGGAGGACGAAGCGGAACGGGGGTGGGTTGAGGCTCGATCATGATAGCGAATTGGACACGATTCGTGTACCAGAAGACACGCCCGACA; experiment: biolayer interferometry; details: 100 mM Na+, 5 mM K+, 2 mM Mg2+, 1 mM Ca2+; 20 mM Tris-HCl pH 7.6; 1:1 fit
[8] = tested on: G24 (DNA, aptamer) GGGAGGACGAAGCGGAACGGGCGGGATTTGAGGCTCGATCCGACTACGGATACGGCTTGCTTGTATCCGCCAGAAGACACGCCCGACA; experiment: biolayer interferometry; details: 100 mM Na+, 5 mM K+, 2 mM Mg2+, 1 mM Ca2+; 20 mM Tris-HCl pH 7.6; 1:1 fit
[9] = tested on: G48norsj (DNA, aptamer) CGATCCAAGGTGGACGGGAGGTTGGATTG; experiment: biolayer interferometry; details: 100 mM Na+, 5 mM K+, 2 mM Mg2+, 1 mM Ca2+; 20 mM Tris-HCl pH 7.6; 1:1 fit
[10] = tested on: G48nop (unlabeled) (DNA, aptamer) GCGACCGAAGTGAGGCTCGATCCAAGGTGGACGGGAGGTTGGATTGTGCGTG; experiment: circular dichroism; details: 100 mM Na+, 5 mM K+, 2 mM Mg2+, 1 mM Ca2+; 20 mM Tris-HCl pH 7.6, 20 °C; 5 µM aptamer; qualitative
[11] = tested on: G48nop (DNA, aptamer) GCGACCGAAGTGAGGCTCGATCCAAGGTGGACGGGAGGTTGGATTGTGCGTG; experiment: BLI aptasensor calibration, five-parameter logistic fit; details: 100 mM Na+, 5 mM K+, 2 mM Mg2+, 1 mM Ca2+; 20 mM Tris-HCl pH 7.6; GYM-A 55–14,000 nM; slope exponent -0.7837
[12] = tested on: G29 (DNA, aptamer) GGGAGGACGAAGCGGAACCGTAGGAAAGTGAGGCTCGATCTACCCTTGGATCGATTTGTCAGGTGGGGACCAGAAGACACGCCCGACA; experiment: biolayer interferometry; details: 100 mM Na+, 5 mM K+, 2 mM Mg2+, 1 mM Ca2+; 20 mM Tris-HCl pH 7.6; 1:1 fit
[13] = tested on: random sequence (control) (DNA, single strand) GAGCCTTAGCAGCACTTCACACGATCCACCCTTAAGGCCAACCTTAACACGACCTCAAACACTGCGTAATGACTGTAGTGATGCCTTA; experiment: biolayer interferometry; details: 100 mM Na+, 5 mM K+, 2 mM Mg2+, 1 mM Ca2+; 20 mM Tris-HCl pH 7.6; tested at 0.5 µM
[14] = tested on: G16 (DNA, aptamer) GGGAGGACGAAGCGGAACCACCTTGAGATGAGGCTCGATCACCGGTGGGTATAGTGGTCGCGATGTATACCAGAAGACACGCCCGACA; experiment: biolayer interferometry; details: 100 mM Na+, 5 mM K+, 2 mM Mg2+, 1 mM Ca2+; 20 mM Tris-HCl pH 7.6; 1:1 fit

Row | Structure (SMILES) | binding ([1]; tested up to 1.5 µM) | binding ([2]; NB [sic], highest concentration not stated) | KD [3] | KD [4] [nM] | KD [5] [nM] | binding [6] | KD [7] [nM] | KD [8] [nM] | KD [9] [nM] | binding [10] | KD ([1]; 1:1 fit) [nM] | EC50 [11] [nM] | KD [2] [nM] | KD [12] [nM] | binding [13] | KD [14] [nM]
1 | C=C1[C@@H](O)[C@@H]2O[C@]3(CC[C@H](/C=C/[C@@H](C)[C@@H]4CC(C)=C[C@@]5(O[C@H](C[C@@](C)(O)C(=O)O)CC[C@H]5O)O4)O3)CC[C@H]2O[C@@H]1[C@@H](O)C[C@H](C)[C@H]1O[C@@]2(CCCCO2)CC[C@H]1C | no | no | – | – | – | – | – | – | – | – | – | – | – | – | – | –
2 | CC1=C[C@@H](C2=C(C)[C@@H]3/C=C(\C)[C@@H](O)CC[C@@H]4C[C@@H](C)[C@@H](O4)/C(C)=C/CCC4=NCCC[C@@]43CC2)OC1=O | – | – | 168,000 nM | 288 | 354.00 | no | 341 | 859 | 501.00 | yes | 95.30 | 3316 | 34.50 ± 1.72 | 308 | no | 495
